How the values were obtained:
[1] = target: Transient receptor potential cation channel subfamily V member 1 (Rattus norvegicus) (UniProt O35433); experiment: Inhibition of […] nM capsaicin-induced 45 [Ca2+] influx in vanilloid receptor expressing CHO cells; format: functional, cell-based
[2] = target: T1, Transient receptor potential cation channel subfamily V member 1 (Rattus norvegicus, UniProt O35433); experiment: In vitro antagonist effect against 50 nM capsaicin-induced 45 [Ca2+] influx in vanilloid receptor expressing CHO cells; format: functional, cell-based
[3] = target: T1, Transient receptor potential cation channel subfamily V member 1; experiment: Binding affinity towards rat vanilloid receptor subtype 1 expressed in CHO cells by [3H]RTX displacement.; format: cell-based
[4] = target: Transient receptor potential cation channel subfamily V member 1 (Rattus norvegicus) (UniProt O35433); experiment: Agonist-induced 45 [Ca2+] influx relative to 300 nM capsaicin in vanilloid receptor expressing CHO cells
[5] = target: T1, Transient receptor potential cation channel subfamily V member 1; experiment: Agonist effect on 45 [Ca2+] influx in vanilloid receptor expressing CHO cells relative to maximal capsaicin (300 nM) response, weak effect at 30 µM
[6] = target: T1, Transient receptor potential cation channel subfamily V member 1; experiment: In vitro antagonist effect against 50 nM capsaicin-induced 45 [Ca2+] influx in vanilloid receptor expressing CHO cells (ineffective); format: functional, cell-based
[7] = target: T1, Transient receptor potential cation channel subfamily V member 1; experiment: Agonist effect on 45 [Ca2+] influx in vanilloid receptor expressing CHO cells relative to maximal capsaicin (300 nM) response (ineffective); format: functional, cell-based
[8] = target: T1, Transient receptor potential cation channel subfamily V member 1; experiment: Agonist effect on 45 [Ca2+] influx in vanilloid receptor expressing CHO cells relative to maximal capsaicin (300 nM) response; format: functional, cell-based
[9] = target: Transient receptor potential cation channel subfamily V member 1 (Rattus norvegicus) (UniProt O35433); experiment: Inhibition of […] nM capsaicin-induced 45 [Ca2+] uptake in vanilloid receptor expressing CHO cells; format: functional, cell-based

Sequence of Transient receptor potential cation channel subfamily V member 1 (Rattus norvegicus) (O35433 whole entry): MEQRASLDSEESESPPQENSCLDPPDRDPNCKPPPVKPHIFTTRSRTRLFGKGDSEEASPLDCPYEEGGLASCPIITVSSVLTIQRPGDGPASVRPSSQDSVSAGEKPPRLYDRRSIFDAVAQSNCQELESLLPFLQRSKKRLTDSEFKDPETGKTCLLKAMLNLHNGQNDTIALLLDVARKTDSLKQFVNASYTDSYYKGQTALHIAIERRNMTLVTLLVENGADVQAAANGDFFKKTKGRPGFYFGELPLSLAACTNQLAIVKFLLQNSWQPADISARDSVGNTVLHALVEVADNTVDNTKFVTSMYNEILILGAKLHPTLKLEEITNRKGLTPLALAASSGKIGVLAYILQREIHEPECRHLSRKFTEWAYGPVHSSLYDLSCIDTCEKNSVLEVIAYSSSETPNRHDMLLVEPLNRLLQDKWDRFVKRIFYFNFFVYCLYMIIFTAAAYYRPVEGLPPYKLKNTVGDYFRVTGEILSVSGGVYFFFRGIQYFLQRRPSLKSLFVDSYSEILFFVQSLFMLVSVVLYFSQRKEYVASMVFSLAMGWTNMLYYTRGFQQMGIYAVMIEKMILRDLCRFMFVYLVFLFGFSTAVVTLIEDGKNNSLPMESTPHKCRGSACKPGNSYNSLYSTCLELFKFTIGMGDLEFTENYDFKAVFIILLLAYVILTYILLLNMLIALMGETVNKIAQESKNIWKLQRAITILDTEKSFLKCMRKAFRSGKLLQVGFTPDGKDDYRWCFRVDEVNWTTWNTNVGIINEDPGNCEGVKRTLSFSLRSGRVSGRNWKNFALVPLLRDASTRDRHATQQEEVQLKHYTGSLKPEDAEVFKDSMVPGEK
T1 sequence (O35433 whole entry): as above

Compound	IC50 [2]	Ki [3]	agonist efficacy [4]	EC50 ([5]; cho)	IC50 [6]	other results
CC(C)(C)C(=O)OCC(CNC(=O)Cc1ccc(NS(C)(=O)=O)c(F)c1)Cc1ccc(C(C)(C)C)cc1 (centres undefined)	440 nM	74 nM	7%	Partially active	–	inhibition [1]: 56%
Cc1ccc(CC(COC(=O)C(C)(C)C)CN(O)/C(S)=N/Cc2ccc(NS(C)(=O)=O)cc2F)cc1C (centres undefined)	–	–	–	Partially active	Not Active	–
Cc1ccc(CC(COC(=O)C(C)(C)C)CN(O)/C(S)=N/Cc2ccc(NS(C)(=O)=O)cc2Cl)cc1C (centres undefined)	757 nM	220 nM	–	–	–	EC50 [7]: Not Active
Cc1ccc(CC(CNC(=S)NCc2ccc(NS(C)(=O)=O)c(F)c2)COC(=O)C(C)(C)C)cc1C (centres undefined)	7.8 nM	–	–	–	–	EC50 [7]: Not Active
Cc1ccc(CC(CNC(=S)N(O)Cc2ccc(NS(C)(=O)=O)c(F)c2)COC(=O)C(C)(C)C)cc1C (centres undefined)	–	–	–	Partially active	Not Active	–
COc1cc(C/N=C(\S)N(O)CC(COC(=O)C(C)(C)C)Cc2ccc(C)c(C)c2)ccc1NS(C)(=O)=O (centres undefined)	–	396 nM	–	–	Not Active	EC50 [8]: 809 nM
Cc1ccc(CC(COC(=O)C(C)(C)C)CN(O)/C(S)=N/Cc2ccc(NS(C)(=O)=O)c(F)c2)cc1C (centres undefined)	–	–	–	–	–	EC50 [7]: Not Active
Cc1ccc(CC(CNC(=O)Cc2ccc(NS(C)(=O)=O)c(F)c2)COC(=O)C(C)(C)C)cc1C (centres undefined)	–	–	10%	Partially active	–	inhibition [1]: 65%
CC(C)(C)C(=O)OCC(Cc1ccc(C(C)(C)C)cc1)CN(O)/C(S)=N/Cc1ccc(NS(C)(=O)=O)c(F)c1 (centres undefined)	10100 nM	405 nM	13%	Partially active	–	–
CC(C)(C)C(=O)OCC(CNC(=S)NCc1ccc(NS(C)(=O)=O)c(F)c1)Cc1ccc(C(C)(C)C)cc1 (centres undefined)	52 nM	22.6 nM	5%	Partially active	–	–
Cc1ccc(CC(CNC(=S)OCc2ccc(NS(C)(=O)=O)c(F)c2)COC(=O)C(C)(C)C)cc1C (centres undefined)	170 nM	210 nM	7.5%	Partially active	–	–
COc1cc(CC(=O)NCC(COC(=O)C(C)(C)C)Cc2ccc(C)c(C)c2)ccc1NS(C)(=O)=O (centres undefined)	–	430 nM	–	–	Not Active	EC50 [8]: 244 nM
COc1cc(CO/C(S)=N/CC(COC(=O)C(C)(C)C)Cc2ccc(C)c(C)c2)ccc1NS(C)(=O)=O (centres undefined)	–	199 nM	–	–	Not Active	EC50 ([5]; read-out: EC50): 373 nM

The next lines start with results.

IC50 [2]	Ki [3]	agonist efficacy [4]	EC50 ([5]; cho)	IC50 [6]	Compound	other results
3600 nM	1980 nM	–	–	–	Cc1ccc(CC(COC(=O)Cc2ccc(NS(C)(=O)=O)cc2)COC(=O)C(C)(C)C)cc1C (centres undefined)	EC50 [7]: Not Active
–	–	12%	Partially active	–	Cc1ccc(CC(COC(=O)C(C)(C)C)CN(O)/C(S)=N/Cc2ccc(NS(C)(=O)=O)cc2)cc1C (centres undefined)	–
460 nM	500 nM	5.6%	Partially active	–	Cc1ccc(CC(CNC(=O)Cc2ccc(NS(C)(=O)=O)cc2)COC(=O)C(C)(C)C)cc1C (centres undefined)	–
331 nM	–	12%	Partially active	–	Cc1ccc(CC(CNC(=S)N(O)Cc2ccc(NS(C)(=O)=O)cc2)COC(=O)C(C)(C)C)cc1C (centres undefined)	–
440 nM	336 nM	11%	Partially active	–	Cc1ccc(CC(CNC(=S)OCc2ccc(NS(C)(=O)=O)cc2)COC(=O)C(C)(C)C)cc1C (centres undefined)	inhibition [9]: 79%
67 nM	–	–	Partially active	–	Cc1ccc(CC(CN/C(S)=N/Cc2ccc(NS(C)(=O)=O)cc2)COC(=O)C(C)(C)C)cc1C (centres undefined)	–
–	–	–	–	Not Active	COc1cc(C/N=C(\S)NCC(COC(=O)C(C)(C)C)Cc2ccc(C)c(C)c2)ccc1NS(C)(=O)=O (centres undefined)	–

From ChEMBL document CHEMBL1149228, “Analysis of structure-activity relationships for the 'B-region' of N-(3-acyloxy-2-benzylpropyl)-N(')-[4-(methylsulfonylamino)benzyl]thiourea analogues as vanilloid receptor antagonists: discovery of an N-hydroxythiourea analogue with potent analgesic activity” (Bioorg Med Chem Lett, 2004)
